Source: patent publication US20180228871A1, “METHODS FOR THE MOBILIZATION AND USE OF T-CELLS WITH ENHANCED RECONSTITUTION POTENTIAL AND LIFE-SPAN” (GlycoMimetics, Inc., priority 2015, published 2018)

How the values were obtained:
HSC = conditions: transient administration; cited from earlier work
HSCs = conditions: E-selectin inhibition during HSC mobilization with G-CSF; cited from earlier work
CD8+CD62Lhi CD44+ cells = test: G-CSF mobilization of blood leukocytes and T-cell subsets with GMI-1271 co-administration (flow cytometry of blood); assay type: in vivo, mice (C57bl/6); conditions: C57bl/6 mice; for CD44+CD62hi CD4+ T-cells per uL blood: G-CSF administration, with or without GMI-1271 co-administration, FIG. 4B
Description: The following classification was used in the following experiments. Of all the CD8+ cells the Tnaive, population is CD62hi […]; the TCM/SCM population is CD62hi CD44+; and the TEM population is CD44+CD62^− population. An increase in the TCM/SCM mouse cell population is observed below (see FIGS. 1 through 6).
Cohorts of mice (C57bl/6 adult 10 week old males) were administered G-CSF (Filgastim, Amgen) at 125ug/kg/injection bidaily subcutaneous injections for a total of 72 hours before sacrifice (with non-mobilised control group #1 receiving saline injection instead).
The E-selectin mimetic antagonist GMI-1271 (bidaily intraperitoneal injections at 40 mg/kg/injection), was co-administered to these mice at specified timepoints prior to sacrifice with a final GMI-1271 injection always occurring exactly 1 hour prior to sacrifice. Generally all mice received injections at 9 am and 6 pm every day with n=4 per group. The injection groups are outlined in FIG. 1 and are detailed below.
The mouse groups were: Group 1. non-mobilised control, Group 2. G-CSF alone control, Group 3. 14 hours GMI-1271, Group 4. 24 hours GMI-1271, Group 5. 48 hours GMI-1271, Group 6. 72 hours GMI-1271
After 3 days (72 hours) G-CSF administration mice were euthanised administration and heparinised blood collected by cardiac puncture. Total blood leukocytes counts were enumerated using an automated haematological cell counter (Beckman-Coulter KX-21), For flow cytometry, red cells were first lysed using ammonium lysis then blood leukocytes washed in phosphate buffered saline (PBS) containing 2% fetal calf serum and incubated on ice in the presence of excess FcBlock (CD16/CD32 hybridoma 2.4G2 supernatant to block endogenous Fc receptors) following the methodology in Winkler et al., Nature Medicine 2012. Cells were stained using the antibodies CD4-pacific blue, CD8-peCY7, CD62L-BV605, CD44-AF700 at a final concentration of approx 5 million leukocytes per 100 uL volume containing 0.5 ug of each of the above conjugated monoclonal antibodies. All conjugated antibodies were purchased from Biolegend, CA. After 40 minutes incubation on ice, cells were washed to remove excess antibody (by addition of 1 mL PBS, centrifugation at 370×g for 5 minutes at 4 C, removal of supernatant and resuspension of pellet in 100 uL PBS with 2% fetal calf serum). Flow cytometry of cells was performed on the 8 colour CYAN (Beckman Coulter) using unstained blood and single colour controls to set voltages and gating strategy.
CD8+ Tcell subsets were divided based on CD62 and CD44 staining. With CD8+ naive T cells being CD62hi CD44−, CD8+T CM/SCM cells being CD62hi CD44+ double positive and TEM being CD44+ and CD62 negative following routine methodology.
Data was later analysed using the Flow Jo software and collated in excel software. Figures and statistics were by ANOVA using prism software.

CCR7+ cells = test: Mobilization of CCR7 cells by G-CSF and GMI-1271: PBMC counts and marker-positive cells by flow cytometry; assay type: in vivo, Mouse; conditions: for CCR7 Cells/mL(10^5): IP qdX3, blood PBMC
Description: (§1) 1) Test Animals: • 1. Species: Mouse • 2. Strain: Balb/C and C57BV6 • 3. Age and gender 7-9 weeks, Female • 4. Source: Harlan Laboratories • 5. Total number: 25
(§2) G-CSF and GM-1271 in powder form. The test agents were reconstituted with saline 600 μg of G-CSF was dissolved in 6.5 mL of sterile saline giving a concentration of 92.307 μg/mL. Animals were administered with 0.1 mL of dose solution per time point giving the dose concentration for G-CSF was 9.23 μg per mouse per time point.
(§3) 70 mg of GM-1271 was reconstituted with 7 mL of sterile saline giving a concentration of 10 mg/mL. Animals were administered with 0.1 mL of dose solution per time point giving the dose concentration for GM-1271 was 1 mg per mouse per time point.
(§4) • To purify PBMCs, red blood cells (RBCs) in the whole blood were lysed using ACK Lysing Buffer (Life Technologies, A1049201). Whole blood was mixed with ACK Lysing Buffer at a 1: 25 ratio and incubated at room temperature on shaker for 5 min. The cells were centrifuged at 350 g for 7 min and the supernatant was discarded. The purified PBMCs were suspended in PBS containing 2% FBS. Cell counts were performed, pelleted at 250×g for 10 minutes and suspended in 5 ml HBSS containing containing Ca2+ and Mg2+(Life Technologies catalog #14025-092) plus 0.05% bovine serum albumin (BSA) to […] for antibody staining.
(§5) • Add 100 ul cells (2-3×10^5 cells) per tube (5 mL polypropylene round-bottom tubes (BD Falcon tubes #352063, VWR catalog #60819-728). Add indicated amounts of Alexa Fluor 488® labeled antibodies as indicated in Table 3 and immediately place on ice. • Place tubes at 4° C. for 1 hour then add 2 mL cold HBSS/BSA to each tube and pellet cells 250×g for 10 minutes. Pour off supernatant and suspend the cell pellet in 1 mL cold HBSS/BSA. Pellet cells 250×g for 10 minutes, pour off supernatant, and suspend cell pellet in 250 microliters HBSS/BSA. Add 250 microliters 2% formaldehyde (Polysciences, Inc. catalog #04018, 10% ultrapure, EM grade, methanol-free). Proceed to flow cytometry.
(§6) • Fluorescence was acquired via blue laser excitation at 488 nm with emission at 530 nm using preset lasers equipped on the Attune@ NxT Accoustic Focusing Cytometer (Life Technologies). 2×104 events were collected for each sample and analyzed with the use of the Attune® NxT Cytometric Software v2.1. Results were recorded as median fluorescent intensity, % cells positive for a given marker, and as cell concentration of expressing the specific marker per mL.
(§7) These experiments were done in both Balb/c (top table) and BL6 (bottom table) mouse strains.

[1] = as above; assay type: in vivo, Mouse; conditions: IP qdX3, blood PBMC
Description: as §1, §2, §3, §4, §5, §6, §7

[2] = in vivo; cited from earlier work

Molecule	CD44+CD62hi CD4+ T-cells per uL blood (CD8+CD62Lhi CD44+ cells)	CCR7 Cells/mL(10^5) (CCR7+ cells; BL6 mice (bottom table))	CCR7 Cells/mL(10^5) (CCR7+ cells; Balb/c mice (top table))	CD4 Cells/mL(10^5) ([1]; BL6 mice (bottom table))	CD8 Cells/mL(10^5) ([1]; BL6 mice (bottom table))	CD44 Cells/mL(10^5) ([1]; BL6 mice (bottom table))	CD62L Cells/mL(10^5) ([1]; BL6 mice (bottom table))	Total cells/mL (10^6 + SD) ([1]; BL6 mice (bottom table))	CD4 Cells/mL(10^5) ([1]; Balb/c mice (top table))	CD8 Cells/mL(10^5) ([1]; Balb/c mice (top table))	CD44 Cells/mL(10^5) ([1]; Balb/c mice (top table))	CD62L Cells/mL(10^5) ([1]; Balb/c mice (top table))	Total cells/mL (10^6 + SD) ([1]; Balb/c mice (top table))	half-life [2] [h]	also measured
C[C@@H]1O[C@@H](O[C@@H]2[C@@H](NC(=O)c3cc(=O)[nH]c(=O)[nH]3)C[C@@H](C(=O)NCCNC(=O)COCCOCC(=O)Nc3cc(S(=O)(=O)O)cc4cc(S(=O)(=O)O)cc(S(=O)(=O)O)c34)C[C@H]2O[C@@H]2O[C@H](CO)[C@H](O)[C@H](O[C@@H](CC3CCCCC3)C(=O)O)[C@H]2OC(=O)c2ccccc2)[C@@H](O)[C@H](O)[C@@H]1O [GMI-1070]															HSC self-renewal (HSC): promotes HSC self-renewal
CC[C@H]1C[C@@H](C(=O)NCCNC(=O)CCOCCOCCOCCOCCOCCOCCOCCOCCOCCOCCOCCOC)C[C@@H](O[C@@H]2O[C@H](CO)[C@H](O)[C@H](O[C@@H](CC3CCCCC3)C(=O)[O-])[C@H]2NC(C)=O)[C@@H]1O[C@@H]1O[C@@H](C)[C@@H](O)[C@@H](O)[C@@H]1O.[Na+] [GMI-1271]	does not appear to boost their numbers in blood	0.23 10^5 cells/mL	1.68 10^5 cells/mL	0.43 10^5 cells/mL	1.74 10^5 cells/mL	3.56 10^5 cells/mL	0.19 10^5 cells/mL	1.89 ± 0.40 10^6 cells/mL	1.56 10^5 cells/mL	0.49 10^5 cells/mL	4.76 10^5 cells/mL	0.74 10^5 cells/mL	1.01 ± 0.46 10^6 cells/mL		reconstitution potential of mobilized HSCs (HSCs): ~25 fold; Total leukocytes per uL blood, increase over G-CSF 3 days alone (CD8+CD62Lhi CD44+ cells; 24 hr administration of GMI-1271 with 72 h G-CSF, FIG. 2): ~1.5 fold; CD44+CD62hi CD8+ Tcells per uL blood (CD8+CD62Lhi CD44+ cells; 24 hrs GMI-1271 co-administration with G-CSF, FIG. 5B): significantly increased; CD4+ Tcells per uL blood (CD8+CD62Lhi CD44+ cells; G-CSF with GMI-1271 co-administration, FIG. 4A): no change; CD8+ Tcells per uL blood (CD8+CD62Lhi CD44+ cells; G-CSF with GMI-1271 co-administration, FIG. 5A): no changes; Total T-cells per uL blood (CD4+ and CD8+ combined) (CD8+CD62Lhi CD44+ cells; GMI-1271 co-administration with G-CSF, FIG. 3): No change; mobilization of CCR7+ cells (CCR7+ cells; addition of GMI-1271 to G-CSF, both Balb/c and BL6 strains): increases the mobilization of CCR7+ cells
G-CSF: granulocyte-colony stimulating factor, a glycoprotein; Example I used Filgastim (Amgen) (protein, UniProt P09919 31-207, looked up, filgrastim) Granulocyte …: TPLGPASSLPQSFLLKCLEQVRKIQGDGAALQEKLVSECATYKLCHPEELVLLGHSLGIPWAPLSSCPSQALQLAGCLSQLHSGLFLYQGLLQALEGISPELGPTLDTLQLDVADFATTIWQQMEELGMAPALQPTQGAMPAFASAFQRRAGGVLVASHLQSFLEVSYRVLRHLAQP	appear to be decreased	0.60 10^5 cells/mL	4.00 10^5 cells/mL	1.10 10^5 cells/mL	10.00 10^5 cells/mL	12.65 10^5 cells/mL	0.09 10^5 cells/mL	5.98 ± 2.25 10^6 cells/mL	3.43 10^5 cells/mL	1.32 10^5 cells/mL	14.88 10^5 cells/mL	1.59 10^5 cells/mL	2.67 ± 0.64 10^6 cells/mL		
Filgrastim: recombinant G-CSF expressed by E. coli, 175 amino acids, 19 kD, amino terminus methionine (protein, UniProt P09919 31-207, looked up, filgrastim, N-terminal Met) Granulocyte …: TPLGPASSLPQSFLLKCLEQVRKIQGDGAALQEKLVSECATYKLCHPEELVLLGHSLGIPWAPLSSCPSQALQLAGCLSQLHSGLFLYQGLLQALEGISPELGPTLDTLQLDVADFATTIWQQMEELGMAPALQPTQGAMPAFASAFQRRAGGVLVASHLQSFLEVSYRVLRHLAQP														3.5	
Pegfilgrastim: Filgrastim with pegylation (20 kD-PEG) modification on the N terminal (protein, UniProt P09919 31-207, looked up, N-terminal 20 kDa PEG; pegfilgrastim) Granulocyte …: TPLGPASSLPQSFLLKCLEQVRKIQGDGAALQEKLVSECATYKLCHPEELVLLGHSLGIPWAPLSSCPSQALQLAGCLSQLHSGLFLYQGLLQALEGISPELGPTLDTLQLDVADFATTIWQQMEELGMAPALQPTQGAMPAFASAFQRRAGGVLVASHLQSFLEVSYRVLRHLAQP														15 to 80	
